Test results: the supplement of paper PMC13380429

Columns and labels:
Conditions in all cases: 72 h
Caco-2 [1] = experiment: relative viability EC50 (midpoint between 100% and the lowest measured viability); higher = less toxic
Calu-3 [2] = experiment: as above
Vero E6 [3] = experiment: as above
HepG2 [4] = experiment: as above
Caco-2 [5] = experiment: drug sensitivity score (DSS) for viability; higher = more toxic; extreme values may be limits of the assay
Calu-3 [6] = experiment: as above
Vero E6 [7] = experiment: as above
HepG2 [8] = experiment: as above
U2OS [9] = experiment: as above
Caco-2 [10] = experiment: cell viability relative to DMSO; higher = less toxic
Calu-3 [11] = experiment: as above
Vero E6 [12] = experiment: as above
HepG2 [13] = experiment: as above
U2OS [14] = experiment: as above

| Structure (SMILES) | relative viability EC50 (Caco-2 [1]) [µM] | relative viability EC50 (Calu-3 [2]) [µM] | relative viability EC50 (Vero E6 [3]) [µM] | relative viability EC50 (HepG2 [4]) [µM] | drug sensitivity score (Caco-2 [5]) | drug sensitivity score (Calu-3 [6]) | drug sensitivity score (Vero E6 [7]) | drug sensitivity score (HepG2 [8]) | drug sensitivity score (U2OS [9]) | cell viability (Caco-2 [10]; 1 nM) [%] | cell viability (Caco-2 [10]; 10 nM) [%] | cell viability (Caco-2 [10]; 100 nM) [%] | cell viability (Caco-2 [10]; 1000 nM) [%] | cell viability (Caco-2 [10]; 10000 nM) [%] | cell viability (Calu-3 [11]; 1 nM) [%] | cell viability (Calu-3 [11]; 10 nM) [%] | cell viability (Calu-3 [11]; 100 nM) [%] | cell viability (Calu-3 [11]; 1000 nM) [%] | cell viability (Calu-3 [11]; 10000 nM) [%] | cell viability (Vero E6 [12]; 1 nM) [%] | cell viability (Vero E6 [12]; 10 nM) [%] | cell viability (Vero E6 [12]; 100 nM) [%] | cell viability (Vero E6 [12]; 1000 nM) [%] | cell viability (Vero E6 [12]; 10000 nM) [%] | cell viability (HepG2 [13]; 1 nM) [%] | cell viability (HepG2 [13]; 10 nM) [%] | cell viability (HepG2 [13]; 100 nM) [%] | cell viability (HepG2 [13]; 1000 nM) [%] | cell viability (HepG2 [13]; 10000 nM) [%] | cell viability (U2OS [14]; 1 nM) [%] | cell viability (U2OS [14]; 10 nM) [%] | cell viability (U2OS [14]; 100 nM) [%] | cell viability (U2OS [14]; 1000 nM) [%] | cell viability (U2OS [14]; 10000 nM) [%] |
| --- | --- | --- | --- | --- | --- | --- | --- | --- | --- | --- | --- | --- | --- | --- | --- | --- | --- | --- | --- | --- | --- | --- | --- | --- | --- | --- | --- | --- | --- | --- | --- | --- | --- | --- |
| COc1cc2nccc(Oc3ccc(NC(=O)C4(C(=O)Nc5ccc(F)cc5)CC4)cc3)c2cc1OC [cabozantinib] | 1.47 | 1.75 | 3.07 | 3.02 | 6.3 | 5.3 | 2.8 | 3.1 | 2.8 | 93 | 97.4 | 96.7 | 82 | 35 | 94.2 | 109 | 100 | 88.1 | 39.2 | 101 | 98 | 97.2 | 99.3 | 48 | 107 | 92.6 | 97.1 | 98.9 | 44.4 | 103 | 104 | 99 | 98.3 | 50.1 |
| COC(=O)[C@@H]1[C@H]2C[C@H]3c4[nH]c5ccccc5c4CCN3C[C@@H]2CC[C@@H]1O [yohimbine] |  | > 10 | > 10 | > 10 |  | 0 | 0 | 0.3 |  |  |  |  |  |  | 103 | 100 | 113 | 108 | 96.9 | 110 | 105 | 101 | 101 | 98.6 | 110 | 113 | 110 | 94.5 | 87.4 |  |  |  |  |  |
| CCC(=O)O[C@H]1CC[C@H]2[C@@H]3CCC4=CC(=O)CC[C@]4(C)[C@H]3CC[C@]12C [TESTOSTERONE PROPIONATE] |  |  |  |  |  |  | 0 | 0 | 0 |  |  |  |  |  |  |  |  |  |  |  |  |  |  |  |  |  |  |  |  |  |  |  |  |  |
| N#Cc1ccc(Cn2cncc2CN2CCN(c3cccc(Cl)c3)C(=O)C2)cc1 | > 10 |  | > 10 | 2.09 | 0.3 | 2.1 | 0.2 | 3.8 | 1.5 | 102 | 106 | 107 | 97.2 | 87 | 104 | 88.2 | 87.1 | 96.4 | 67.5 | 107 | 102 | 95.4 | 99.9 | 85.5 | 108 | 100 | 107 | 93.3 | 49.9 | 96.1 | 104 | 98.4 | 99.2 | 68.7 |
| O=C(CBr)N1CC([N+](=O)[O-])([N+](=O)[O-])C1 [RRx-001] | > 10 | > 10 | > 10 | > 10 | 0 | 0 | 0 | 0 |  | 105 | 98.3 | 113 | 104 | 105 | 101 | 91.6 | 116 | 100 | 100 | 106 | 106 | 99.6 | 102 | 102 | 102 | 114 | 109 | 106 | 94.8 |  |  |  |  |  |
| CC(C)(C)c1ccc(CN(Cc2cccc(OCC(=O)O)c2)S(=O)(=O)c2cccnc2)cc1 [evatanepag] | > 10 | > 10 | > 10 | > 10 | 0 | 0 | 0 | 0 |  | 98.5 | 97.8 | 101 | 102 | 101 | 110 | 101 | 94.2 | 99.7 | 94.9 | 108 | 104 | 102 | 97.4 | 93.5 | 99.1 | 108 | 91.7 | 94.3 | 93.6 |  |  |  |  |  |
| Cc1nc(N)sc1-c1ccnc(Nc2ccc(N3CCOCC3)cc2)n1 [CYC116] | > 10 | > 10 |  | 1.38 | 1.7 | 0.7 | 5.1 | 7.2 | 4.1 | 99.3 | 87.4 | 98.8 | 87.7 | 75.1 | 104 | 109 | 101 | 105 | 75.5 | 100 | 103 | 99 | 80.8 | 51.6 | 97.9 | 106 | 97.9 | 77.8 | 28.4 | 104 | 102 | 103 | 89.6 | 53.7 |
| COC(=O)[C@H](CC(C)C)NC(=O)c1ccc(NC[C@@H](N)CS)cc1-c1cccc2ccccc12 [GGTI-298] | > 10 | > 10 | > 10 | > 10 | 1 | 0 | 0.9 | 0 | 2.9 | 92.3 | 100 | 95.2 | 98.8 | 75.9 | 93.1 | 104 | 88.8 | 100 | 93.7 | 105 | 110 | 104 | 86.3 | 92.7 | 90.4 | 106 | 101 | 93.8 | 100 | 95.3 | 97.4 | 92.7 | 94.3 | 60.9 |
